Two substances from PMC8456958, “Selective Bacterial Targeting and Infection‐Triggered Release of Antibiotic Colistin Conjugates” (Angewandte Chemie (International Ed. in English), 2021) can be followed below.

The subject of test [1] is E. coli K12, A. baumannii, P. aeruginosa PA14. Nature of the test: Quantification of bacterial binding of fluorescently labelled compounds. As to conditions: 1 μM in PBS, rt, 1 h incubation, washing, 485/520 nm. The class given is cell-based. Here is the method:
Figure 4 Staining of Gram‐negative bacteria with fluorescently labeled colistin conjugates. a) Three Gram‐negative bacteria (E. coli K12, A. baumannii, P. aeruginosa PA14) were grown in T‐medium, to an OD600 of 1.0, and the fluorescently labeled compounds were added (1 μM in PBS, rt, 1 h incubation), followed by washing steps and a quantification of fluorescence in the wells. C‐Fluo: 5(6)‐carboxyfluorescein. […] An overlay of fluorescence (485/520 nm) and phase contrast pictures is shown. […]
Cell counting: 20 µl of a cell suspension were mixed with 20 µl Cedex Tryptan Blue Solution. 10 µl of the mixture were measured automatically in a cell counter (Cedex XS Cell Analyzer, Roche) in duplicate.
Quantification of bacterial binding of fluorescently labelled compounds The bacterial strains A. baumannii, E. coli K12 and P. aeruginosa PA14 were cultivated in T-medium at 37 °C to exponential growth (OD600 = 2-3). […] Afterwards, the bacteria were washed twice with PBS, suspended at OD600 = 0.2 in PBS and fluorescence was measured at 485/520 nm with 200 µl of bacterial suspensions in black 96-well microtiter plates from above in triplicate. […]

Test [2] concerns neutrophil granulocytes (PMN). Nature of the test: Release of neutrophil elastase from neutrophil granulocytes (ELISA). The format is cell-based, human. The conditions noted are these: stimulation with 0.1 μM fMLP. Here is the method:
Figure 5 Cellular proof of concept for triggered antibiotic release from 6. a) Release of neutrophil elastase (NE) from neutrophil granulocytes. PMN were isolated and suspended in RPMI 1640. For activation, 0.1 μM fMLP was added. The samples were incubated for 1 h at 37 °C, centrifuged to remove cells, and the NE concentration was determined in the supernatant by ELISA. Values normalized to 1×10^6 cells mL^−1. Data are presented as the mean of 4 separate experiments. *p<0.03 compared to unactivated. b) Activity of NE after co‐cultivation of PMN with E. coli K12 in presence of 1 or 6. 5×10^5 cells mL^−1 of PMN were co‐cultivated with 8×10^6 cells mL^−1 of E. coli K12 (ratio of bacteria : PMN 16:1) for 1 h at 37 °C in RPMI 1640/HEPES‐NaCl 1:1. Data are presented as the mean of two separate experiments. c) Release of colistin from 6. […] After 1 h colistin concentrations were determined by HPLC–MS. […]
50 µl of the diluted detection antibody (diluted with Reagent Diluent) with a final concentration of 250 ng/ml were added and incubated for 1.5 h at 37 °C. […] The absorbance was measured at 450 nm together with a correction wavelength of 570 nm, the value of which was subtracted.
Calculation of results: All samples and standards were measured in duplicate. […]
On the technique in general: In an ELISA, binding on a coated surface is turned into a signal by an enzyme label.

The test system of test [3] is human neutrophil granulocytes (PMN). Nature of the test: Activation of human neutrophil granulocytes (CD66b, flow cytometry). The class given is cell-based. The conditions noted are these: 0.1 μM fMLP, 1 h at 37 °C with shaking, FITC-labeled anti CD66b antibody; three independent experiments. Here is the method: HPLC-MS measurements were carried out in triplicate. Data from MRM measurements were analyzed with Skyline (vers. 18.3, MacCoss Laboratory, University of Washington).
Isolation of Neutrophil Granulocytes from human blood
The MACSxpress Neutrophil Isolation Kit, human from Miltenyi Biotec (Bergisch-Gladbach, Germany) was employed. Fresh venous EDTA blood was processed within 1 h. 65 mg of the MACSxpress whole blood isolation cocktail (lyophilized powder) were mixed with 1 ml of buffer A (from the kit). Then 1 ml of buffer B (from the kit) was added, and the well-mixed cocktail was added to 4 ml of peripheral whole blood in a 15 ml tube. The mixture was gently inverted 3 times and mixed on a tube rotator at 50 rpm for 5 min at rt. The tube was placed, without cap, for 20 min into a strong magnetic field (neodymium magnets). The suspension containing the PMN was collected into a fresh 15 ml tube by careful pipetting. […]
All steps were carried out with cooled media (4 °C) and the vials were kept on ice. Freshly isolated neutrophil granulocytes in RPMI 1640 were counted, followed by centrifugation at 200 x g for 10 min at 4 °C. […]
50 µl of the diluted detection antibody (diluted with Reagent Diluent) with a final concentration of 250 ng/ml were added and incubated for 1.5 h at 37 °C. […] The absorbance was measured at 450 nm […]
On the technique in general: Flow cytometry measures light scatter and fluorescence of single cells or particles in a stream.

On to 5(6)‐carboxyfluorescein, for which the “bacterial binding (fluorescence), in words” value in test [1] is recorded as “did hardly show binding above background”.
In the case of “N-Formyl-Met-Leu-Phe [fMLP, formyl‐methionyl‐leucyl‐phenylalanine]”, in test [2] (RPMI 1640, 1 h, 37 °C, supernatant, ELISA, normalized to 1×10^6 cells mL^−1, mean of 4 experiments, basal 39), the “amount of elastase released by neutrophil granulocytes” value came out at 84 ng/mL. Moreover, the “amount of elastase released, as activity” value in test [2] (converted from ELISA amount, basal 2.5) is on record as 5.5 mU mL^−1. For the same substance, the “increase of the activation state marker CD66b” value in test [3] is 2.5 fold.
